Data reported in paper PMC4086519, “Anti-Trichophyton Activity of Protocatechuates and Their Synergism with Fluconazole” (Evidence-based Complementary and Alternative Medicine : eCAM, 2014).
In brackets after ≈: the same amount, converted by molar mass. Like-named read-outs stand apart in the source and are kept apart here.

What was measured:
Assay type in all cases: cell-based
[1] = test system: Trichophyton rubrum; assay: Broth microdilution MIC (CLSI M38-A2, modified)
Description: (§1) To evaluate its antifungal activity, […] of dermatophytes were tested: two clinical strains of Trichophyton rubrum (Tr1 and Tr2), Trichophyton rubrum ATCC MYA 3108, two clinical strains of Trichophyton mentagrophytes (Tm1 and Tm2), and Trichophyton mentagrophytes ATCC 40131 (Tm3). The microorganisms were obtained from the collection of the Clinical Mycology Laboratory of the Department of Clinical Analyses at the School of Pharmaceutical Sciences of Universidade Estadual Paulista (UNESP). The strains were cultivated on Sabouraud dextrose agar (Difco, BD Biosciences) and incubated at 28°C for 7-15 days. For all experiments, the strains were cultivated on Potato Dextrose Agar (Difco, BD Biosciences) and incubated at 28°C as described above or until sporulation. The dilution of the synthetic compounds was performed with DMSO (Synth, Diadema, Sao Paulo, Brazil) as described by Scorzoni et al.. […] The antifungal drugs were diluted according to the CLSI […]-A2 document. Stock solutions of Fluconazole (Sigma-Aldrich, St. Louis, MO, USA) were prepared, considering its power. Serial twofold dilutions were prepared according to the recommendations of Zhang and collaborators, with some modifications. The antifungal activity tests were performed using the broth microdilution method as described in […]-A2, a document produced by the Clinical and Laboratory Standards Institute (CLSI, 2008), with modifications. The medium used was RPMI 1640 with L-glutamine (Sigma-Aldrich, St. Louis, MO, USA) buffered to pH 7.0 with 0.165 M morpholinepropanesulfonic acid (MOPS) (Sigma-Aldrich, St. Louis, MO, USA), supplemented with 2% glucose. […] The suspension of conidia was then transferred to small sterile test tubes where they remained for 40 minutes to separate the microconidia, which were lighter and therefore present in the supernatant. […] These suspensions were diluted in RPMI 1640 (Sigma-Aldrich, St. […] Positive (100 μL of RPMI medium with 100 μL of inoculum) and negative (200 μL of RPMI) controls were included in all experiments. The plates were incubated with agitation at 35°C for 7 days. The MIC reading was performed by spectrophotometry at 490 nm.

[2] = test system: Trichophyton mentagrophytes; assay: Broth microdilution MIC (CLSI M38-A2, modified)
Description: as §1

[3] = test system: Trichophyton rubrum; assay: Minimum fungicide concentration (MFC)
Description: (§2) A qualitative analysis of the fungal viability was performed by transferring a portion of the wells to a plate with Sabouraud (Difco, BD Biosciences) medium and incubating it at 35°C for the time determined for each fungal agent. […] A visual reading was performed to confirm the death or growth inhibition provided by fluconazole and the sixteen semisynthetic substances derived from protocatechuic acid.

[4] = test system: Trichophyton mentagrophytes; assay: Minimum fungicide concentration (MFC)
Description: as §2

[5] = Tr1, T. rubrum clinical isolate, 35°C, 7 days
[6] = Tr2, T. rubrum clinical isolate, 35°C, 7 days
[7] = Tr3, T. rubrum ATCC MYA 3108, 35°C, 7 days
[8] = Tm1, clinical isolate, 35°C, 7 days
[9] = Tm2, clinical isolate, 35°C, 7 days
[10] = Tm3, T. mentagrophytes ATCC 40131, 35°C, 7 days
[11] = Tr1, T. rubrum clinical isolate
[12] = Tr2, T. rubrum clinical isolate
[13] = Tm3, T. mentagrophytes ATCC 40131

CCOC(=O)c1ccc(O)c(O)c1 [Protocatechuate ethyl]
MIC [1, 5]: 31.2 µg/mL (≈ 171 µM)
MIC [1, 6]: 31.2 µg/mL (≈ 171 µM)
MIC [1, 7]: 31.2 µg/mL (≈ 171 µM)
MIC [2, 8]: 31.2 µg/mL (≈ 171 µM)
MIC [2, 9]: 31.2 µg/mL (≈ 171 µM)
MIC [2, 10]: 31.2 µg/mL (≈ 171 µM)
MFC [3, 11]: 31.2 µg/mL (≈ 171 µM)
MFC [3, 12]: 31.2 µg/mL (≈ 171 µM)
MFC ([3]; Tr3, T. rubrum ATCC MYA 3108): 31.2 µg/mL (≈ 171 µM)
MFC ([4]; Tm1, clinical isolate): 62.5 µg/mL (≈ 343 µM)
MFC ([4]; Tm2, clinical isolate): 31.2 µg/mL (≈ 171 µM)
MFC [4, 13]: 125 µg/mL (≈ 686 µM)

CCCCOC(=O)c1ccc(O)c(O)c1 [Protocatechuate butyl]
MIC [1, 5]: 15.6 µg/mL (≈ 74.2 µM)
MIC [1, 6]: 7.8 µg/mL (≈ 37.1 µM)
MIC [1, 7]: 7.8 µg/mL (≈ 37.1 µM)
MIC [2, 8]: 7.80 µg/mL (≈ 37.1 µM)
MIC [2, 9]: 15.6 µg/mL (≈ 74.2 µM)
MIC [2, 10]: 15.6 µg/mL (≈ 74.2 µM)
MFC [3, 11]: 15.6 µg/mL (≈ 74.2 µM)
MFC [3, 12]: 7.8 µg/mL (≈ 37.1 µM)
MFC ([3]; Tr3, T. rubrum ATCC MYA 3108): 7.8 µg/mL (≈ 37.1 µM)
MFC ([4]; Tm1, clinical isolate): 62.5 µg/mL (≈ 297 µM)
MFC ([4]; Tm2, clinical isolate): 15.6 µg/mL (≈ 74.2 µM)
MFC [4, 13]: 15.6 µg/mL (≈ 74.2 µM)

CCCCCCCCCCCCCCOC(=O)c1ccc(O)c(O)c1 [Protocatechuate tetradecyl]
MIC [1, 5]: > 250 µg/mL
MIC [1, 6]: 125 µg/mL (≈ 357 µM)
MIC [1, 7]: > 250 µg/mL
MIC [2, 8]: > 250 µg/mL
MIC [2, 9]: 125 µg/mL (≈ 357 µM)
MIC [2, 10]: > 250 µg/mL
MFC [3, 11]: > 250 µg/mL
MFC [3, 12]: 125 µg/mL (≈ 357 µM)
MFC ([3]; Tr3, T. rubrum ATCC MYA 3108): > 250 µg/mL
MFC ([4]; Tm1, clinical isolate): > 250 µg/mL
MFC ([4]; Tm2, clinical isolate): 250 µg/mL (≈ 713 µM)
MFC [4, 13]: > 250 µg/mL

CCCCCCCCCCCCCCCCCCOC(=O)c1ccc(O)c(O)c1 [Protocatechuate octadecyl]
MIC [1, 5]: > 250 µg/mL
MIC [1, 6]: > 250 µg/mL
MIC [1, 7]: > 250 µg/mL
MIC [2, 8]: > 250 µg/mL
MIC [2, 9]: > 250 µg/mL
MIC [2, 10]: > 250 µg/mL
MFC [3, 11]: > 250 µg/mL
MFC [3, 12]: > 250 µg/mL
MFC ([3]; Tr3, T. rubrum ATCC MYA 3108): > 250 µg/mL
MFC ([4]; Tm1, clinical isolate): > 250 µg/mL
MFC ([4]; Tm2, clinical isolate): > 250 µg/mL
MFC [4, 13]: > 250 µg/mL

CCCCCCCCCCCCOC(=O)c1ccc(O)c(O)c1 [Protocatechuate dodecyl]
MIC [1, 5]: > 250 µg/mL
MIC [1, 6]: 125 µg/mL (≈ 388 µM)
MIC [1, 7]: > 250 µg/mL
MIC [2, 8]: 250 µg/mL (≈ 775 µM)
MIC [2, 9]: 62.5 µg/mL (≈ 194 µM)
MIC [2, 10]: 31.2 µg/mL (≈ 96.8 µM)
MFC [3, 11]: > 250 µg/mL
MFC [3, 12]: 125 µg/mL (≈ 388 µM)
MFC ([3]; Tr3, T. rubrum ATCC MYA 3108): 250 µg/mL (≈ 775 µM)
MFC ([4]; Tm1, clinical isolate): 250 µg/mL (≈ 775 µM)
MFC ([4]; Tm2, clinical isolate): 62.5 µg/mL (≈ 194 µM)
MFC [4, 13]: 62.5 µg/mL (≈ 194 µM)

COC(=O)c1ccc(O)c(O)c1 [Protocatechuate methyl]
MIC [1, 5]: 62.5 µg/mL (≈ 372 µM)
MIC [1, 6]: 31.2 µg/mL (≈ 186 µM)
MIC [1, 7]: 31.2 µg/mL (≈ 186 µM)
MIC [2, 8]: 62.5 µg/mL (≈ 372 µM)
MIC [2, 9]: 62.5 µg/mL (≈ 372 µM)
MIC [2, 10]: 31.2 µg/mL (≈ 186 µM)
MFC [3, 11]: 62.5 µg/mL (≈ 372 µM)
MFC [3, 12]: 31.2 µg/mL (≈ 186 µM)
MFC ([3]; Tr3, T. rubrum ATCC MYA 3108): 62.5 µg/mL (≈ 372 µM)
MFC ([4]; Tm1, clinical isolate): 250 µg/mL (≈ 1490 µM)
MFC ([4]; Tm2, clinical isolate): 62.5 µg/mL (≈ 372 µM)
MFC [4, 13]: 62.5 µg/mL (≈ 372 µM)

CCCCCCCCCCCCCCCCOC(=O)c1ccc(O)c(O)c1 [Protocatechuate hexadecyl]
MIC [1, 5]: > 250 µg/mL
MIC [1, 6]: > 250 µg/mL
MIC [1, 7]: > 250 µg/mL
MIC [2, 8]: > 250 µg/mL
MIC [2, 9]: > 250 µg/mL
MIC [2, 10]: > 250 µg/mL
MFC [3, 11]: > 250 µg/mL
MFC [3, 12]: > 250 µg/mL
MFC ([3]; Tr3, T. rubrum ATCC MYA 3108): > 250 µg/mL
MFC ([4]; Tm1, clinical isolate): > 250 µg/mL
MFC ([4]; Tm2, clinical isolate): > 250 µg/mL
MFC [4, 13]: > 250 µg/mL

CCCOC(=O)c1ccc(O)c(O)c1 [Protocatechuate propyl]
MIC [1, 5]: 15.6 µg/mL (≈ 79.5 µM)
MIC [1, 6]: 31.2 µg/mL (≈ 159 µM)
MIC [1, 7]: 31.2 µg/mL (≈ 159 µM)
MIC [2, 8]: 15.6 µg/mL (≈ 79.5 µM)
MIC [2, 9]: 62.5 µg/mL (≈ 319 µM)
MIC [2, 10]: 15.6 µg/mL (≈ 79.5 µM)
MFC [3, 11]: 15.6 µg/mL (≈ 79.5 µM)
MFC [3, 12]: 31.2 µg/mL (≈ 159 µM)
MFC ([3]; Tr3, T. rubrum ATCC MYA 3108): 31.2 µg/mL (≈ 159 µM)
MFC ([4]; Tm1, clinical isolate): 62.5 µg/mL (≈ 319 µM)
MFC ([4]; Tm2, clinical isolate): 62.5 µg/mL (≈ 319 µM)
MFC [4, 13]: 31.2 µg/mL (≈ 159 µM)

CCCCCCCCCCOC(=O)c1ccc(O)c(O)c1 [Protocatechuate decyl]
MIC [1, 5]: 3.9 µg/mL (≈ 13.2 µM)
MIC [1, 6]: 3.9 µg/mL (≈ 13.2 µM)
MIC [1, 7]: 3.90 µg/mL (≈ 13.2 µM)
MIC [2, 8]: 7.8 µg/mL (≈ 26.5 µM)
MIC [2, 9]: 3.9 µg/mL (≈ 13.2 µM)
MIC [2, 10]: 3.90 µg/mL (≈ 13.2 µM)
MFC [3, 11]: 3.9 µg/mL (≈ 13.2 µM)
MFC [3, 12]: 3.9 µg/mL (≈ 13.2 µM)
MFC ([3]; Tr3, T. rubrum ATCC MYA 3108): 7.8 µg/mL (≈ 26.5 µM)
MFC ([4]; Tm1, clinical isolate): 7.8 µg/mL (≈ 26.5 µM)
MFC ([4]; Tm2, clinical isolate): 3.9 µg/mL (≈ 13.2 µM)
MFC [4, 13]: 15.6 µg/mL (≈ 53 µM)

O=C(O)c1ccc(O)c(O)c1 [Acid protocatechuic, Protocatechuic acid (3,4-dihydroxybenzoic)]
MIC [1, 6]: 250 µg/mL (≈ 1620 µM)
MIC [1, 7]: 250 µg/mL (≈ 1620 µM)
MIC ([1]; Trichophyton rubrum, 168 h): 250 µg/mL (≈ 1620 µM)
MIC [2, 9]: 250 µg/mL (≈ 1620 µM)
MIC ([2]; Trichophyton mentagrophytes, 168 h): 250 µg/mL (≈ 1620 µM)
MIC ([2]; Trichophyton mentagrophytes, ATCC40131, 168 h): 125 µg/mL (≈ 811 µM)
MFC [3, 12]: 250 µg/mL (≈ 1620 µM)
MFC ([3]; Tr3, T. rubrum ATCC MYA 3108): 250 µg/mL (≈ 1620 µM)
MFC ([3]; Trichophyton rubrum): 250 µg/mL (≈ 1620 µM)
MFC ([4]; Tm2, clinical isolate): > 250 µg/mL
MFC ([4]; Trichophyton mentagrophytes): > 250 µg/mL
MFC ([4]; Trichophyton mentagrophytes, ATCC40131): 125 µg/mL (≈ 811 µM)

CC(=O)Oc1ccc(C(=O)O)cc1OC(C)=O [Acid 3.4 diacetoxybenzoic, 3,4-diacetoxybenzoic acid]
MIC ([1]; Trichophyton rubrum, 168 h, Tr1, T. rubrum clinical isolate, 35°C, 7 days, read-out: MIC): 250 µg/mL (≈ 1050 µM)
MIC ([1]; Trichophyton rubrum, 168 h, Tr2, T. rubrum clinical isolate, 35°C, 7 days, read-out: MIC): > 250 µg/mL
MIC ([1]; Trichophyton rubrum, 168 h, Tr3, T. rubrum ATCC MYA 3108, 35°C, 7 days, read-out: MIC): > 250 µg/mL
MIC ([2]; Trichophyton mentagrophytes, 168 h, Tm1, clinical isolate, 35°C, 7 days, read-out: MIC): 250 µg/mL (≈ 1050 µM)
MIC ([2]; Trichophyton mentagrophytes, 168 h, Tm2, clinical isolate, 35°C, 7 days, read-out: MIC): > 250 µg/mL
MIC ([2]; Trichophyton mentagrophytes, ATCC40131, 168 h, Tm3, T. mentagrophytes ATCC 40131, 35°C, 7 days, read-out: MIC): 250 µg/mL (≈ 1050 µM)
MFC ([3]; Trichophyton rubrum, Tr1, T. rubrum clinical isolate, read-out: MFC): 250 µg/mL (≈ 1050 µM)
MFC ([3]; Trichophyton rubrum, Tr2, T. rubrum clinical isolate, read-out: MFC): > 250 µg/mL
MFC ([3]; Trichophyton rubrum, Tr3, T. rubrum ATCC MYA 3108, read-out: MFC): > 250 µg/mL
MFC ([4]; Trichophyton mentagrophytes, ATCC40131, Tm3, T. mentagrophytes ATCC 40131, read-out: MFC): 250 µg/mL (≈ 1050 µM)
MFC ([4]; Trichophyton mentagrophytes, Tm1, clinical isolate, read-out: MFC): 250 µg/mL (≈ 1050 µM)
MFC ([4]; Trichophyton mentagrophytes, Tm2, clinical isolate, read-out: MFC): > 250 µg/mL
